Values of other authors in patent US20230079480A1, “STABLE NON-AQUEOUS COMPOSITIONS OF FUNCTIONAL INGREDIENTS AND METHODS OF MAKING THE SAME” (Nulixir Inc., priority 2021, published 2023).
Like-named read-outs stand apart in the source and are kept apart here.

Key:
[1] = not given; remark: listed apart in the source
[2] = in vivo
[3] = test system: many strains of fungi
[4] = water and n-octanol reference phases, pH=7 unless stated otherwise

COc1ccc(CCc2cc(OC)cc(=O)o2)cc1 [7,8-dihydroyangonin]
log P [4]: ~2.9

CC(C)=C[C@@H]1CO[C@]23C[C@]4(CO2)[C@H](CC[C@@H]2[C@@]5(C)CC[C@H](O[C@@H]6OC[C@H](O)[C@H](O[C@@H]7O[C@H](CO)[C@@H](O)[C@H](O)[C@H]7O)[C@H]6O[C@@H]6O[C@@H](CO)[C@H](O)[C@H]6O)C(C)(C)[C@@H]5CC[C@]24C)[C@H]3[C@@]1(C)O [bacopasaponin C]
log P (pH 7): ~2

COc1nc2c(c(=O)n1C)n(C)c(=O)n2C [methylliberine]
log P [4]: ~−0.083

CC(C)=CCC[C@](C)(O[C@@H]1O[C@H](CO)[C@@H](O)[C@H](O)[C@H]1O)[C@H]1CC[C@]2(C)[C@@H]1[C@H](O)C[C@@H]1[C@@]3(C)CC[C@H](O)C(C)(C)[C@@H]3[C@@H](O[C@@H]3O[C@H](CO)[C@@H](O)[C@H](O)[C@H]3O)C[C@]12C [ginsenoside rg1]
log P (pH 7): ~0.8

schisandroside C
log P [4]: ~1.6

COc1cc2c(c(OC)c1OC)-c1c(cc(OC)c(OC)c1OC)C[C@H](C)[C@H](C)C2 [(−)-schisandrin A]
log P [4]: ~3.6

CC(=O)OC1C=CC(=O)N(C(=O)CCc2ccccc2)C1 (stereo not drawn) [pipermethystine]
log P [4]: ~1.8

COc1ccc([C@@]23C=CC(=O)C[C@@H]2N(C)CC3)cc1OC [mesembrenone]
log P (pH 7): ~1.3

(R)-kawain
log P [4]: ~2.7

COc1cc2c(c(OC)c1OC)-c1c(cc(OC)c(OC)c1OC)C[C@](C)(O)[C@@H](C)C2 [schisandrol A]
log P [4]: ~3.4

COc1ccc2cc3[n+](cc2c1OC)CCc1cc2c(cc1-3)OCO2 [berberine]
solubility in ethanol as a function of water content [1]: decreases rapidly with water content | bioavailability [2]: below 1%

COc1cc(/C=C\c2ccc(OC)c(O)c2)oc(=O)c1 [11-hydroxyyangonin]
log P [4]: ~2.2

CC(C)=C[C@H]1C[C@](C)(O)[C@H]2[C@H]3CC[C@@H]4[C@@]5(C)CC[C@H](O[C@@H]6O[C@H](CO)[C@@H](O)[C@H](O[C@@H]7O[C@H](CO)[C@@H](O)[C@H](O)[C@H]7O)[C@H]6O[C@@H]6O[C@@H](CO)[C@H](O)[C@H]6O)C(C)(C)[C@@H]5CC[C@@]4(C)[C@@]34CO[C@@]2(C4)O1 [bacoside A3]
log P (pH 7): ~2.1

COc1cc2c(c(OC)c1OC)-c1c(cc3c(c1OC)OCO3)CC(C)C(C)C2 (single isomer, unassigned; (-)) [(−)-schisandrin B]
log P [4]: ~4

COc1cc(/C=C/c2ccccc2)oc(=O)c1 [5,6-dehydrokawain]
log P [4]: ~2.9

CC(C)=C[C@H]1C[C@](C)(O)[C@@H]2[C@H]3CC[C@@H]4[C@@]5(C)CC[C@H](O[C@@H]6OC[C@H](O)[C@H](O[C@@H]7O[C@H](CO)[C@@H](O)[C@H](O)[C@H]7O)[C@H]6O[C@@H]6O[C@@H](CO)[C@H](O)[C@H]6O)C(C)(C)[C@@H]5CC[C@@]4(C)[C@@]34CO[C@@]2(C4)O1 [bacopaside X]
log P (pH 7): ~2.2

COc1ccc(C23C=CC(O)CC2N(C)CC3)cc1OC (stereo not drawn) [mesembrenol]
log P (pH 7): ~2.4

CC(C)=CCC[C@](C)(O[C@@H]1O[C@H](CO[C@@H]2O[C@H](CO)[C@@H](O)[C@H](O)[C@H]2O)[C@@H](O)[C@H](O)[C@H]1O)[C@H]1CC[C@]2(C)[C@@H]1[C@H](O)C[C@@H]1[C@@]3(C)CC[C@H](O[C@@H]4O[C@H](CO)[C@@H](O)[C@H](O)[C@H]4O[C@@H]4O[C@H](CO)[C@@H](O)[C@H](O)[C@H]4O)C(C)(C)[C@@H]3CC[C@]12C [ginsenoside rb1]
log P (pH 7): ~−1

hericerin
log P [4]: ~6.4

herinacine A
log P [4]: ~2.5

Cn1c(=O)c2c(n(C)c1=O)n(C)c(=O)n2C [theacrine]
log P [4]: ~−1.06

COc1ccc([C@@]23CCC(=O)C[C@@H]2N(C)CC3)cc1OC [mesembrine]
log P [4]: ~1.5

COC1=CC(=O)OC(/C=C/c2ccc(OC)cc2)C1 (stereo not drawn) [5,6-dihydroyangonin]
log P [4]: ~2.5

bacopaside B
log P [4]: ~2.8

CC1=C(CO)C(=O)O[C@@H]([C@@H](C)[C@H]2CC[C@H]3[C@@H]4C[C@H](Cl)[C@]5(O)[C@@H](O)C=CC(=O)[C@]5(C)[C@H]4CC[C@]23C)C1 [6a-chloro-5b-hydroxywithaferin A]
log P [4]: ~3.2

COc1cc([C@H]2Oc3cc(O)c4c(=O)c(O)c(-c5ccc(O)cc5)oc4c3O[C@@H]2CO)ccc1O [rhodiolin]
log P [4]: ~2

COc1c2c(cc3c1-c1c(cc4c(c1OC)OCO4)C[C@H](C)[C@H](C)C3)OCO2 [(−)-schisandrin C]
log P [4]: ~3.5

COC1=CC(=O)O[C@@H](CCc2ccc3c(c2)OCO3)C1 [7,8-dihydromethysticin]
log P [4]: ~2.2

tortuosomine
log P [4]: ~3

O=CC=Cc1ccccc1 [Cinnamaldehyde]
inhibitory activity against fungi [3]: strong inhibitory activity against many strains of fungi

N#C[C@@]1(O[C@@H]2O[C@H](CO)[C@@H](O)[C@H](O)[C@H]2O)C=C[C@@H](O)C1 [tetraphyllin B]
log P [4]: ~−2.5

COc1cc2c(c(OC)c1OC)-c1c(cc(OC)c(OC)c1OC)C[C@](C)(O)[C@@H](C)C2 [(+)-schisandrin]
log P [4]: ~5
